Earlier results as cited in patent publication US20030158162A1, “Methods of treating ophthalmic disorders with epoxy-steroidal aldosterone receptor antagonists” (priority 2001, published 2003).

Settings: Klin Monatsbl Augenheilkd 176(3):445-6 (1980)

CC(=O)S[C@@H]1CC2=CC(=O)CC[C@]2(C)[C@H]2CC[C@@]3(C)[C@@H](CC[C@@]34CCC(=O)O4)[C@H]12 [Spironolactone]
effect on IOP in glaucoma patients: lower IOP
